Tested on: epidermal stem cell
Excerpt: Unless otherwise specified, all mice used in this study were males of approximately 2 months of age and from a C57BL6 genetic background. Mice of a FVB genetic background (2 months-old) were also used in Supplementary FIG. S1. Generation and characteristics of the Terc−/− and the K15-EGFP mice were previously described (Morris et al., 2004; Blasco et al., 1997).
To induce epidermal stem cell “mobilization” (activation, migration and proliferation), tail skin in the telogen (resting) phase of the hair cycle was topically treated every 48 h with TPA (20 nmol in acetone) for a total of four doses. Control mice of each genotype were treated with acetone alone. 24-hours after the last TPA treatment, mice were sacrificed and the tail skin analysed.
For telomere length analyses, samples from mouse tail and back skin, small intestine, cornea, testis and brain were harvested and fixed o/n in neutralbuffered formalin at 4° C., dehydrated through graded alcohols and xylene, and embedded in paraffin. Prior to embedding, dissected skin was cut parallel to the spine in order to obtain longitudinal hair follicle sections. The intestinal tract was flushed with PBS and rolled up in a compact circle using longitudinally oriented jejunal sections for analysis. For cornea and testis analyses, whole eyes and testis were cut in half prior to dehydration. Finally, brain was coronal-dissected to harvest the rostral hippocampus. In all cases, […] sections were used for QFISH and immunostaining analyses.
For Q-FISH, paraffin-embedded tissue sections were hybridized with a PNA-tel Cy3-labelled probe and telomere length was determined as described (González-Suárez et al., 2000; Muñoz et al., 2005; Zijlmans et al., 1997). Slides were deparaffinized in three xylene washes (3 m each), then treated for 3 m with a 100, 95 and 70% ethanol series, followed by telomere Q-FISH protocol performed as described (Samper et al., 2000). DAPI, Cy3 signals were acquired simultaneously into separate channels using a confocal ultraspectral microscope (Leica TCS-SP2-A-OBS-UV) using a PL APO 20×/0.70 PH2 as lens with Leica LCS software and maximum projections from image stacks (10 sections at steps 1.0 μm) were generated for image quantification. The DPSS-561 laser (Cy3 laser) was hold at a constant intensity to capture all the mouse tissues images.
High throughput quantitative image analysis was performed on confocal images using the Metamorph platform (version 6.3r6; Molecular Devices, Union City, Calif.). The DAPI image was used to define the nuclear area and the Cy3 image to quantify of telomere fluorescence. In all cases, background noise was subtracted from each image prior to making […] measurements. The DAPI images were signal-intensity thresholded, segmented and converted to 1-bit binary image. The binary DAPI mask was applied to the matching Cy3 to obtain a combined image with telomere fluorescence information for each
nucleus. Cy3 fluorescence intensity (telomere fluorescence) was measured as “average gray values” (total gray value/nuclei area) units (arbitrary units of fluorescence). These “average telomere fluorescence” values always represent the average Cy3 pixel intensity for the total nuclear area, and not the average value of individual telomere spot intensities, therefore ruling out that differences in nuclear size may influence telomere length measurements. A code of four colours was used to classify the nuclei according to their average telomere fluorescence. Telomere fluorescence ranges were initially set up to allocate in each range roughly ¼ of the total cells of a given tissue in wild type mice of 2 months of age. […] Telomere fluorescence ranges of a given tissue obtained in this manner were then maintained constant between genotypes, treatment and ages to facilitate comparisons.

[1] = wild-type mice, TPA-treated vs untreated, FIG. 1d, significant
[2] = wild-type mice, upon TPA treatment, FIG. 6

CCCCCCCCCCCCCC(=O)O[C@@H]1[C@@H](C)[C@@]2(O)[C@@H](C=C(CO)C[C@]3(O)C(=O)C(C)=C[C@@H]23)[C@H]2C(C)(C)[C@]12OC(C)=O [TPA]
percentage of cells with the longest telomeres at the TA compartments and the interfollicular epidermis (telomerase-deficient G1 Terc-/- mice, TPA-treated skin, FIG. 1c,d): did not show increased percentage
percentage of cells with the longest telomeres at the hair bulge (telomerase-deficient G1 Terc-/- mice, TPA-treated vs untreated skin, FIG. 1c): reduction
total number of epidermal cells showing the longest telomeres (telomerase-deficient G1 Terc-/- mice, TPA-treated vs untreated skin, P<0.01, FIG. 1e): decreased
frequency of long telomeres in all hair follicle compartments (telomere length histograms) (telomerase-deficient G1 Terc-/- mice, TPA-treated, FIG. 6): decreased frequency of long telomeres
total number of epidermal cells showing 1800-3000 a.u. of telomere fluorescence (wild-type mice, TPA-treated vs untreated skin, P<0.05, FIG. 1e): significantly increased
cells with the longest telomeres in the TA compartments (hair bulb and infundibulum) (wild-type mice, TPA-treated vs untreated tail skin): accumulation
percentage of the cells with the longest telomeres at the hair bulge (wild-type mice, TPA-treated vs untreated tail skin, longest telomeres = 1800-3000 a.u. telomere fluorescence): decreased
absolute number of cells containing the longest telomeres at the hair bulge [1]: decreased at the hair bulge
absolute number of cells containing the longest telomeres in the other epidermal compartments [1]: concomitantly increased
frequency of long telomeres in hair bulge cells (telomere length histograms) [2]: decreased frequency of long telomeres
telomere length in cells located at the TA compartment and the interfollicular epidermis (telomere length histograms) [2]: increased telomere length

Reference: patent US8084203B2, “Methods for the determination of telomere length in a semi-automatic manner of every single cell in a immobilized cell population” (Fundacion Centro Nacional de Investigaciones Oncologicas …, priority 2008, dated 2011)
